Test results as given in patent US4109088A, “2-(Indenyloxymethyl) morpholine derivatives” (priority 1975, dated 1978).
Where a name gives a salt, the structure may show the parent alone.

Experiments:
[1] = test system: methamphetamine-induced stereotyped behavior; experiment: Methamphetamine-induced stereotyped behavior in rats (Experiment 6); type: in vivo, rats (male Wistar strain, aged 8 weeks)
Protocol: Effects of the compounds on methamphetamine-induced stereotyped behavior in rats (male Wistar strain, aged 8 weeks) were examined according to the method of Ueki et al. (Folia Pharmacologica Japonica, 68, 716, 1972).
The rats were placed in separate plastic cages for 1 hour to be accustomed to the experimental conditions and then the tested compounds were given intraperitoneally followed, after 1 hour, by an intraperitoneal application of methamphetamine (5 mg/kg). The influence of the tested compounds on the agitated behavior of the rats were observed every 30 minutes till 5 hours thereafter.

[2] = test system: reserpine-induced hypothermia; experiment: Reserpine-induced hypothermia in mice (Experiment 7); settings: p.o.
[3] = Pharmacological activity of the isolated isomer salts (general statement); type: in vivo; settings: statement in words
[4] = test system: methamphetamine-induced stereotyped behavior; experiment: Potentiation of methamphetamine-induced stereotyped behavior in rats (Experiment 1); type: in vivo, rats (male Wistar strain, aged 6 weeks); settings: for minimal effective dose: Rattus norvegicus, read-out: minimum effective dose causing statistically significant potentiation of the methamphetamine-induced stereotype; for minimum effective dose causing statistically significant potentiation of the methamphetamine-induced stereotype: i.p., 1 hour before methamphetamine 5 mg/Kg i.p., rats observed every 30 minutes until 5 hours
Protocol: The rats were placed in separate plastic cages for 1 hour to be accustomed to the experimental conditions, then the tested compounds were given intraperitoneally followed after 1 hour by an intraperitoneal application of methamphetamine (5 mg/Kg).

[5] = in vivo; settings: mouse, po, male, 25-35 g
Excerpt: Acute toxicity (ICR-JCR strain, male, weighing 25-35 g, p.o.)

[6] = test system: reserpine induced ptoses and hypothermia; experiment: Competitive effects on reserpine induced ptoses and hypothermia in mice (Experiment 3); type: in vivo, mice (male ICR-JCL strain weighing 25-35 g); settings: 10 mg/Kg, p.c. (so in the source), simultaneously with reserpine 2 mg/Kg i.p.; scored 0.5-6 hours; 10 mice
Protocol: The tested compound (10 mg/Kg, p.c.) and reserpine (2 mg/Kg, i.p.) were applied simultaneously to the mice and the degree of ptosis was scored according to the method of Ruben et al. (J. Pharmacol. Exptl. Ther., 120, 125, 1957) at 0.5, 1, 2, 3, 4, 5 and 6 hours after dosages, respectively.
Rectal temperature of the mice were also measured together with those of non-reserpinized mice. Inhibitory percent of the degree of ptosis and differences between rectal temperatures of reserpinized and non-reserpinized mice due to the tested compound are shown in the following Table. For each experiment 10 mice were used.

With `C1=Cc2c(cccc2OCC2CNCCO2)C1.Cl` (stereo not shown) [2-(4-indenyloxymethyl)-morpholine hydrochloride] as the compound, how does the ED50 ([1]; Rattus norvegicus, ip, 1 hour before methamphetamine 5 mg/kg i.p.) read?
Its ED50 is 5 mg/kg.

What does the source list for `C1=Cc2cccc(OCC3CNCCO3)c2C1.Cl` (stereo not shown) [2-(7-indenyloxymethyl)morpholine hydrochloride]?
potency compared with 2-(4-indenyloxymethyl) morpholine hydrochloride [2]: more potent than the latter; relative potency vs 2-(4-indenyloxymethyl) morpholine hydrochloride ([1]; ratio of ED50, i.p.): 2.5 times

Which “pharmacological activity compared with the 4-isomer acid addition salt” value [3] does the source give for `C1=Cc2cccc(OCC3CNCCO3)c2C1` (stereo not drawn) [7-isomer acid addition salt, acid addition salt of 2-(7-indenyloxymethyl) morpholine] here?
Its value is “more preferable pharmacological activity than the 4-isomer acid addition salt”.

With `CN(C)CCC=C1c2ccccc2CCc2ccccc21` [Amitriptyline, reference compound] as the compound, how does the minimal effective dose [4] read?
Its minimal effective dose is 10 mg/kg.

With `CC(C)N1CCOC(COc2cccc3c2CCC3)C1` (stereo not shown) [Compound C, 2-(4-indanyloxymethyl)-4-isopropyl morpholine, reference compound] as the compound, how does the “minimum effective dose causing statistically significant potentiation of the methamphetamine-induced stereotype” value [4] read?
Its value is “non effective”.

What does the source list for `CC(C)N1CCOC(COc2cccc3c2CC=C3)C1` (stereo not shown) [Example 1, 4-isopropyl-2-(7-indenyloxymethyl)morpholine]?
LD50 [5]: 650 mg/kg; minimal effective dose [4]: 0.3 mg/kg; Inhibition of ptosis (%) [6]: 14.5%

With `CCCCN1CCOC(COc2cccc3c2CC=C3)C1` (stereo not shown) [Example 2, 4-butyl-2-(7-indenyloxymethyl)-morpholine] as the compound, how does the minimal effective dose [4] read?
The minimal effective dose was 3 mg/kg.

With `CCN1CCOC(COc2cccc3c2CC=C3)C1` (stereo not shown) [Example 5, 4-ethyl-2-(7-indenyloxymethyl)morpholine] as the compound, how does the LD50 [5] read?
Its LD50 is 700 mg/kg.

What about the minimal effective dose [4] of the same compound?
Its minimal effective dose is 0.3 mg/kg.

With `CCCN1CCOC(COc2cccc3c2CC=C3)C1` (stereo not shown) [Example 6, 2-(7-indenyloxymethyl)-4-propylmorpholine] as the compound, how does the minimal effective dose [4] read?
Its minimal effective dose is 1 mg/kg.

For `CC1=CCc2c(OCC3CNCCO3)cccc21` (stereo not shown) [Example 11, 2-(3-methyl-7-indenyloxymethyl)morpholine], which minimal effective dose [4] is on record?
Its minimal effective dose is 0.3 mg/kg.

With `CC1=CCc2c(OCC3CN(C(C)C)CCO3)cccc21` (stereo not shown) [Example 12A, 4-isopropyl-2-(3-methyl-7-indenyloxymethyl)morpholine] as the compound, how does the minimal effective dose [4] read?
Its minimal effective dose is 0.03 mg/kg.

For `CC1=CCc2cccc(OCC3CN(C(C)C)CCO3)c21` (stereo not shown) [Example 12B, 4-isopropyl-2-(3-methyl-4-indenyloxymethyl)morpholine], which minimal effective dose [4] is on record?
Its minimal effective dose is 0.3 mg/kg.

What does the source list for `CCOc1ccccc1OCC1CNCCO1` (stereo not shown) [Viloxazine HCl, 2-(2-ethoxyphenoxymethyl) morpholine, reference compound]?
minimum effective dose causing statistically significant potentiation of the methamphetamine-induced stereotype [4]: non effective; Inhibition of ptosis (%) [6]: 6.0%

For “mixture of 2-(4-indenyloxymethyl)morpholine and 2-(7-indenyloxymethyl) morpholine [Example 10]”, which “minimum effective dose causing statistically significant potentiation of the methamphetamine-induced stereotype” value [4] is on record?
Its value is 0.3 mg/kg.
